Ten molecules from BindingDB's records for doi:10.1021/jm00034a005 (University of Paris, 1994) can be followed below.

The experiment concerns the target Neprilysin. Description: In vivo inhibitory potency against neutral endopeptidase by displacement of [3H]HACBOGly binding in mouse kidney. Background: Displacement assays read how much labelled ligand stays bound in the presence of the test substance.
As for `CCC(NC(=O)C(CS)C(C)c1ccccc1)C(=O)O` (stereo not given) [2-(2-Mercaptomethyl-3-phenyl-butyrylamino)-butyric acid], the IC50 (in general, the point on the concentration scale where inhibition reaches its midpoint) came out at 6.3 nM.

Take `CC(NC(=O)C(CS)C(C)c1ccc2c(c1)OCO2)C(=O)O` (stereo not given) [2-(3-Benzo[1,3]dioxol-5-yl-2-mercaptomethyl-butyrylamino)-propionic acid]: the 50% inhibitory concentration (IC50) worked out at 2 nM. In turn, `CC(c1ccc(F)c(F)c1)C(CS)C(=O)NC(Cc1ccc(O)cc1)C(=O)O` (stereo not given) [2-[3-(3,4-Difluoro-phenyl)-2-mercaptomethyl-butyrylamino]-3-(4-hydroxy-phenyl)-propionic acid] came in with a half-inhibitory concentration (IC50) of 5.2 nM. In turn, `CC(NC(=O)C(CS)C(C)c1ccc(F)c(F)c1)C(=O)O` (stereo not given) [2-[3-(3,4-Difluoro-phenyl)-2-mercaptomethyl-butyrylamino]-propionic acid] registered an IC50 of 3.5 nM. The molecule `CC(c1ccc(N)cc1)C(CS)C(=O)NC(Cc1ccc(O)cc1)C(=O)O` (stereo not given) [2-[3-(4-Amino-phenyl)-2-mercaptomethyl-butyrylamino]-3-(4-hydroxy-phenyl)-propionic acid] gave a half-inhibitory concentration (IC50) of 16 nM. In the case of `CC(c1ccc(F)cc1)C(CS)C(=O)NC(Cc1ccc(O)cc1)C(=O)O` (stereo not given) [2-[3-(4-Fluoro-phenyl)-2-mercaptomethyl-butyrylamino]-3-(4-hydroxy-phenyl)-propionic acid], the IC50 stood at 5.9 nM. With `CC(NC(=O)C(CS)C(C)c1ccc(F)cc1)C(=O)O` (stereo not given) [2-[3-(4-Fluoro-phenyl)-2-mercaptomethyl-butyrylamino]-propionic acid], the half-inhibitory concentration (IC50) amounted to 2 nM. Consider `O=C(NC(Cc1ccc(O)cc1)C(=O)O)C(CS)Cc1ccccc1` (stereo not given) [3-(4-Hydroxy-phenyl)-2-(2-mercaptomethyl-3-phenyl-propionylamino)-propionic acid], for which the half-maximal inhibitory concentration (IC50) was found to be 2 nM.

With `CC(c1ccc(O)cc1)C(CS)C(=O)NC(Cc1ccc(O)cc1)C(=O)O` (stereo not given) [3-(4-Hydroxy-phenyl)-2-[3-(4-hydroxy-phenyl)-2-mercaptomethyl-butyrylamino]-propionic acid], the IC50 came out at 9 nM. For the molecule `CC(c1ccccc1)C(CS)C(=O)NC(COCc1ccccc1)C(=O)O` (stereo not given) [3-Benzyloxy-2-(2-mercaptomethyl-3-phenyl-butyrylamino)-propionic acid], the half-inhibitory concentration (IC50) amounted to 4 nM.
